{"source": "patent US20230270764A1", "about": "“COMPOSITION COMPRISING CANNABINOIDS, TERPENES, AND FLAVONOIDS FOR TREATING DEPRESSION” (priority 2020, published 2023)", "type_in_all_cases": "in vivo", "key": {"LPS-injected mice [1]": {"test_system": "LPS-injected mice", "experiment": "Sucrose preference test in the LPS-induced model of depression", "settings": "Example 9; male C57BL/6, i.p. 1 h before LPS 330 µg/kg; mg/kg: CBD 30; CBDA 1 or 5; BCP 50; kaempferol 30; CBD 30 plus THC 10; CBD 30 plus kaempferol 30", "text": "In a preliminary screening experiment, subjects were 4-6 months-old male C57BL/6 (Jackson Laboratories, USA). Animals were housed 2-3/cage, kept in an air-conditioned room (23+°C) and given ad libitum access to food and water. The mice were kept in a reversed light/dark cycle, with lights off from 7 a.m. to 7 p.m. All experiments were approved by the Hebrew University of Jerusalem Ethics Committee on Animal Care and Use. In preparation for the Sucrose Preference Test, mice were habituated 2-3 times to sucrose drinking, by exposing them overnight to two graduated tubes, one containing water and the other containing sucrose solution (1%, w/v). Water and sucrose consumption were measured, and sucrose preference was computed by dividing the amount of sucrose consumed by drinking (ml sucrose) by the total drinking volume (ml of sucrose + water). One day later, the weight of the mice and the food in their cages was weighed for later analysis of food consumption and body weight changes. Groups of mice were injected intraperitoneally (i.p.) with either vehicle (cremophor, ethanol and PBS, 1:1:18 (v/v/v)) or a cannabinoid-based formulation (by itself or with another cannabinoid, or a terpene or a flavonoid). One hour later, each of these groups was injected with LPS (330 µg/kg). All injections were administered at a dose of 10 ml/kg. Four hours following the LPS injection, mice were tested in the Open-Field Test. In this test, the measured locomotor activity reflects not only motor capacity, but particularly the innate motivation for spatial exploration (which increases the distance travelled) and the anxiety level (which reduces the distance travelled, in general, and particularly the distance and time spent in the center of the open field). Each subject was placed near one of the walls of a white 50 X 50 cm^2 arena with 40 cm high walls. The distance travelled (cm), the velocity of the movement (cm/second), the time spent (seconds), distance travelled (cm) in the center area of the arena, as well as the number of entries from the perimeter area into the center of the arena were automatically measured over a 4-minute period, using EthoVision XT video tracking system and software (Noldus, The Netherlands). Twenty-four hours after the LPS injection, mice were tested in the Social Exploration Test. […] Social exploration, defined as the time of near contact between the nose of the subject and the juvenile in the small cage was recorded for 4 min, using computerized in-house software. Sucrose preference was assessed, as described above, between 8 to 27 hr post LPS injection. Body weight and weight of the food were measured two hours before the LPS injection, and again after 24 hours, and the change in body weight and food consumption were calculated. […]"}, "LPS-injected mice [2]": {"test_system": "LPS-injected mice", "experiment": "Body weight change and food consumption in the LPS-induced model of depression", "text": "Animals were housed 2-3/cage, kept in an air-conditioned room (23+°C) and given ad libitum access to food and water. The mice were kept in a reversed light/dark cycle, with lights off from 7 a.m. to 7 p.m. All experiments were approved by the Hebrew University of Jerusalem Ethics Committee on Animal Care and Use. In preparation for the Sucrose Preference Test, mice were habituated 2-3 times to sucrose drinking, by exposing them overnight to two graduated tubes, one containing water and the other containing sucrose solution (1%, w/v). Water and sucrose consumption were measured, and sucrose preference was computed by dividing the amount of sucrose consumed by drinking (ml sucrose) by the total drinking volume (ml of sucrose + water). One day later, the weight of the mice and the food in their cages was weighed for later analysis of food consumption and body weight changes. Groups of mice were injected intraperitoneally (i.p.) with either vehicle (cremophor, ethanol and PBS, 1:1:18 (v/v/v)) or a cannabinoid-based formulation (by itself or with another cannabinoid, or a terpene or a flavonoid). One hour later, each of these groups was injected with LPS (330 µg/kg). All injections were administered at a dose of 10 ml/kg. Four hours following the LPS injection, mice were tested in the Open-Field Test. In this test, the measured locomotor activity reflects not only motor capacity, but particularly the innate motivation for spatial exploration (which increases the distance travelled) and the anxiety level (which reduces the distance travelled, in general, and particularly the distance and time spent in the center of the open field). Each subject was placed near one of the walls of a white 50 X 50 cm^2 arena with 40 cm high walls. The distance travelled (cm), the velocity of the movement (cm/second), the time spent (seconds), distance travelled (cm) in the center area of the arena, as well as the number of entries from the perimeter area into the center of the arena were automatically measured over a 4-minute period, using EthoVision XT video tracking system and software (Noldus, The Netherlands). Twenty-four hours after the LPS injection, mice were tested in the Social Exploration Test. In this test, the subject was placed in an observation cage containing a small metal wire mesh cage with a conspecific mouse inside it. Social exploration, defined as the time of near contact between the nose of the subject and the juvenile in the small cage was recorded for 4 min, using computerized in-house software. Sucrose preference was assessed, as described above, between 8 to 27 hr post LPS injection. Body weight and weight of the food were measured two hours before the LPS injection, and again after 24 hours, and the change in body weight and food consumption were calculated.\nThis particular study was conducted in several experimental cohorts, and not all compounds and all measures were studied in all cohort. However, each cohort included a vehicle-treated group; therefore, the scores in each behavioral test were converted to % of mean vehicle-treated group in every individual cohort/experiment. Statistical comparisons were computed using SPSS software and consisted of one-way analyses of variance (ANOVA), followed by post-hoc comparisons with the Student-Newman-Keuls method."}, "LPS-injected mice [3]": {"test_system": "LPS-injected mice", "experiment": "Sucrose preference test in the LPS-induced model of depression"}, "[4]": {"settings": "adult (6-9 months-old) male mice, acute CBD"}, "[5]": {"settings": "adult and young adult female mice, acute CBD, saline or LPS"}, "[6]": {"settings": "young adult (2.5-3 months old) male mice, acute CBD"}, "[7]": {"settings": "young-adult male mice, CBD 30 mg/kg i.p. 3 consecutive days"}}, "data": [{"smiles": "C=C(C)[C@@H]1CCC(C)=C[C@H]1c1c(O)cc(CCCCC)cc1O", "note": "[CBD, cannabidiol]", "values": [{"measurement": "sucrose preference compared with vehicle-treated groups", "setting": "LPS-injected mice [1]", "result": "significantly increased sucrose preference"}, {"measurement": "food consumption over 24 hr vs vehicle-treated group", "setting": "LPS-injected mice [2]; Example 9, male C57BL/6, i.p. 1 h before LPS 330 µg/kg, mg/kg: CBD 30, CBD 30 plus THC 10, cannabinol 10, CBD 30 plus BCP 50", "result": "consumed significantly more food"}, {"measurement": "LPS-induced body weight loss and decrease in food consumption", "setting": "LPS-injected mice [2]; [4]", "result": "not influenced by CBD administration"}, {"measurement": "food consumption and body weight", "setting": "LPS-injected mice [2]; [5]", "result": "None of these parameters was influenced by treatment with CBD"}, {"measurement": "food consumption among the LPS-injected groups", "setting": "LPS-injected mice [2]; adult female mice, acute CBD (#p<0.05)", "result": "significant difference between the CBD- and vehicle-treated group"}, {"measurement": "LPS-induced decreases in body weight and food consumption", "setting": "LPS-injected mice [2]; [6]", "result": "None of these parameters was influenced by treatment with CBD"}, {"measurement": "LPS-induced body-weight loss", "setting": "LPS-injected mice [2]; [7]", "result": "no effects"}, {"measurement": "sucrose preference vs vehicle-LPS group", "setting": "LPS-injected mice [3]; Example 18, celecoxib 10, 20, 30 mg/kg or CBD 30 mg/kg by themselves", "result": "no significant effects"}, {"measurement": "sucrose consumption, LPS-injected groups", "setting": "LPS-injected mice [3]; [4]", "result": "significant difference between the CBD- and vehicle-treated group"}, {"measurement": "sucrose preference", "setting": "LPS-injected mice [3]; [4]", "result": "reduction in the negative effect of LPS on sucrose preference"}, {"measurement": "sucrose preference and sucrose consumption", "setting": "LPS-injected mice [3]; [5]", "result": "None of these parameters was influenced by treatment with CBD"}, {"measurement": "sucrose preference compared with the saline-injected control group", "setting": "LPS-injected mice [3]; adult female mice, LPS, CBD 30 mg/kg, CBD 30 mg plus kaempferol 60 mg", "result": "significantly reduced sucrose preference"}, {"measurement": "LPS-induced decreases in sucrose preference and sucrose consumption", "setting": "LPS-injected mice [3]; [6]", "result": "None of these parameters was influenced by treatment with CBD"}, {"measurement": "sucrose consumption, main effect of CBD", "setting": "LPS-injected mice [3]; young-adult female mice, acute CBD, difference among saline-injected mice", "result": "significantly reduced"}, {"measurement": "LPS-induced reduction in sucrose consumption", "setting": "LPS-injected mice [3]; [7]", "result": "no effect"}, {"measurement": "LPS-induced suppression of sucrose preference", "setting": "LPS-injected mice [3]; [7]", "result": "completely reversed"}]}, {"smiles": "C=C(C)[C@@H]1CCC(C)=C[C@H]1c1c(O)cc(CCCCC)c(C(=O)O)c1O", "note": "[CBDA, Cannabidiolic acid]", "values": [{"measurement": "sucrose preference compared with vehicle-treated groups", "setting": "LPS-injected mice [1]", "result": "significantly increased sucrose preference"}, {"measurement": "food consumption vs Vehicle-treated LPS-injected mice", "setting": "LPS-injected mice [2]; young-adult female mice, CBDA 1 mg/kg", "result": "significantly increased"}, {"measurement": "body weight reduction", "setting": "LPS-injected mice [2]; young-adult female mice, CBDA 0.5, 1, 5 mg/kg", "result": "no significant difference"}, {"measurement": "body weight reduction and food consumption", "setting": "LPS-injected mice [2]; young-adult male mice, CBDA 1, 5 mg/kg, CBD 25 and CBDA 1 mg/kg", "result": "no significant differences"}, {"measurement": "sucrose consumption vs Vehicle-treated LPS-injected mice", "setting": "LPS-injected mice [3]; young-adult female mice, CBDA 1 mg/kg (not 0.5 or 5)", "result": "significantly increased"}, {"measurement": "sucrose preference vs Vehicle-treated LPS-injected mice", "setting": "LPS-injected mice [3]; young-adult female mice, CBDA 1 mg/kg (not 0.5 or 5) i.p. 1 hr before LPS 330 µg/kg", "result": "significantly increased"}, {"measurement": "sucrose consumption vs Vehicle-treated LPS-injected mice", "setting": "LPS-injected mice [3]; young-adult male mice, CBDA 1 mg/kg", "result": "significantly increased"}, {"measurement": "sucrose preference vs Vehicle-treated LPS-injected mice", "setting": "LPS-injected mice [3]; young-adult male mice, CBDA 1 mg/kg (not 5)", "result": "significantly increased"}, {"measurement": "sucrose consumption vs Vehicle-treated LPS-injected mice", "setting": "LPS-injected mice [3]; young-adult male mice, CBDA 5 mg/kg, CBD 25 mg/kg and CBDA 1 mg/kg", "result": "significant increase"}]}, {"smiles": "O=c1c(O)c(-c2ccc(O)cc2)oc2cc(O)cc(O)c12", "note": "[kaempferol]", "values": [{"measurement": "sucrose preference compared with vehicle-treated groups", "setting": "LPS-injected mice [1]", "result": "significantly increased sucrose preference"}]}]}
